Experimental data as given in US12404295B2, “(Hetero)aryl-methyl-thio-beta-D-galactopyranoside derivatives” (Idorsia Pharmaceuticals Ltd, priority 2019, dated 2025).
pIC50: −log10 of the molar value. Read-outs that look alike come from different tables or passages of the source.

Experiments:
human Gal-3 (hGal-3) = human Gal-3 (hGal-3) (Homo sapiens (Human), UniProt P17931); experiment: competitive binding assay: biotinylated hGal-3 binding to microplate-adsorbed asialofetuin (ASF)
Method in brief: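 Compounds serially diluted in DMSO compete with asialofetuin for biotinylated human Gal-3; plates are incubated 3 h at 4 °C, washed, then treated 1 h at 4 °C with streptavidin-peroxidase (80 ng/mL) and developed with ABTS. IC50 values are means of several measurements.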

human Gal-1 (hGal-1) = human Gal-1 (hGal-1) (Homo sapiens (Human), UniProt P09382); experiment: competitive binding assay: biotinylated hGal-1 binding to microplate-adsorbed asialofetuin (ASF); conditions: Table 15; read-out: IC50 (Galectin-1 inhibition)
Chain of human Gal-1 (hGal-1) (P09382 whole entry): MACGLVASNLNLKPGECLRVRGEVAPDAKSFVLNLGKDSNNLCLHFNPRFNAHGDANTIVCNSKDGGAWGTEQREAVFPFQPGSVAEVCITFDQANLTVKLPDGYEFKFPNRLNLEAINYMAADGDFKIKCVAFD
Method in brief: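 Biotinylated human Gal-1 (300-1000 ng/mL) competes with serially diluted compound for binding to ASF-coated plates, 3 h at 4° C. Bound protein detected with streptavidin-peroxidase and ABTS substrate (spectrophotometric). IC50 given as mean of several measurements.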

[1] = Table 5, read-out: IC50 (Gal-3 inhibition)
[2] = Gal-3 inhibition, binding of biotinylated hGal-3 to ASF, mean values, read-out: IC50

Chain of human Gal-3 (hGal-3) (P17931 whole entry): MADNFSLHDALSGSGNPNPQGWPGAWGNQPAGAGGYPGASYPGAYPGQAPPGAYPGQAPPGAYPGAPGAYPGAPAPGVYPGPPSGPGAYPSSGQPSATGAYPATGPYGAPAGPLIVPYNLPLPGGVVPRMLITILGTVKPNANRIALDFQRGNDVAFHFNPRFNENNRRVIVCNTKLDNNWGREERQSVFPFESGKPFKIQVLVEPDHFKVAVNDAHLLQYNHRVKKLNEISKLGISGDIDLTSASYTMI

OC[C@H]1O[C@@H](S[C@H](c2ccccc2C(F)(F)F)C2(O)CCOCC2)[C@H](O)[C@@H](n2cc(-c3cc(F)c(F)c(F)c3)nn2)[C@H]1O [Example 2.41.112R., (2R,3R,4S,5R,6S)-2-(Hydroxymethyl)-6-(((R)-(4-hydroxytetrahydro-2H-pyran-4-yl)(2-(trifluoromethyl)phenyl)methyl)thio)-4-(4-(3,4,5-trifluorophenyl)-1H-1,2,3-triazol-1-yl)tetrahydro-2H-pyran-3,5-diol]
pIC50 (human Gal-3 (hGal-3); [1]): 7.10 | pIC50 (human Gal-1 (hGal-1)): 6.05

Cc1ccccc1C(S[C@@H]1O[C@H](CO)[C@H](O)[C@H](n2cc(-c3cc(F)c(F)c(F)c3)nn2)[C@H]1O)C1(O)CC(C)(C)C1 (stereo partly drawn) [Example 2.35.102., (2S,3R,4S,5R,6R)-2-(((1-Hydroxy-3,3-dimethylcyclobutyl)(o-tolyl)methyl)thio)-6-(hydroxymethyl)-4-(4-(3,4,5-trifluorophenyl)-1H-1,2,3-triazol-1-yl)tetrahydro-2H-pyran-3,5-diol]
pIC50 (human Gal-3 (hGal-3); [1]): 6.46 | pIC50 (human Gal-1 (hGal-1)): 5.21

CC(C)c1ccccc1C(CO)S[C@@H]1O[C@H](CO)[C@H](O)[C@H](n2cc(-c3cc(F)c(F)c(F)c3)nn2)[C@H]1O (stereo partly drawn) [Example 2.30.105., (2S,3R,4S,5R,6R)-2-((2-Hydroxy-1-(2-isopropylphenyl)ethyl)thio)-6-(hydroxymethyl)-4-(4-(3,4,5-trifluorophenyl)-1H-1,2,3-triazol-1-yl)tetrahydro-2H-pyran-3,5-diol]
pIC50 (human Gal-3 (hGal-3); [2]): 6.40 | pIC50 (human Gal-1 (hGal-1)): 5.76

Cc1ccccc1[C@@H](S[C@@H]1O[C@H](CO)[C@H](O)[C@H](n2cc(-c3cc(F)c(F)c(F)c3)nn2)[C@H]1O)C1(O)CCCCC1 [Example 2.39.102R., (2S,3R,4S,5R,6R)-2-(((R)-(1-Hydroxycyclohexyl)(o-tolyl)methyl)thio)-6-(hydroxymethyl)-4-(4-(3,4,5-trifluorophenyl)-1H-1,2,3-triazol-1-yl)tetrahydro-2H-pyran-3,5-diol]
pIC50 (human Gal-3 (hGal-3); [1]): 7.05 | pIC50 (human Gal-1 (hGal-1)): 5.94

Cc1conc1C(S[C@@H]1O[C@H](CO)[C@H](O)[C@H](n2cc(-c3cc(F)c(F)c(F)c3)nn2)[C@H]1O)C1(O)CCS(=O)(=O)CC1 (stereo partly drawn) [Example 2.66.120., 4-((((2S,3R,4S,5R,6R)-3,5-Dihydroxy-6-(hydroxymethyl)-4-(4-(3,4,5-trifluorophenyl)-1H-1,2,3-triazol-1-yl)tetrahydro-2H-pyran-2-yl)thio)(4-methylisoxazol-3-yl)methyl)-4-hydroxytetrahydro-2H-thiopyran 1,1-dioxide]
pIC50 (human Gal-3 (hGal-3); [2]): 6.85 | pIC50 (human Gal-1 (hGal-1)): 6.48

O=C(NC1CC1)N1CCC(O)([C@H](S[C@@H]2O[C@H](CO)[C@H](O)[C@H](n3cc(-c4cc(F)c(F)c(F)c4)nn3)[C@H]2O)c2ccccc2C(F)(F)F)CC1 [Example 2.49.112R., N-Cyclopropyl-4-((R)-(((2S,3R,4S,5R,6R)-3,5-dihydroxy-6-(hydroxymethyl)-4-(4-(3,4,5-trifluorophenyl)-1H-1,2,3-triazol-1-yl)tetrahydro-2H-pyran-2-yl)thio)(2-(trifluoromethyl)phenyl)methyl)-4-hydroxypiperidine-1-carboxamide]
pIC50 (human Gal-3 (hGal-3); [2]): 7.30 | pIC50 (human Gal-1 (hGal-1)): 6.80

(2S,3R,4S,5R,6R)-2-(((S)-((R)-4-Hydroxy-2,2-dimethyltetrahydro-2H-pyran-4-yl)(2-(trifluoromethyl)phenyl)methyl)thio)-6-(hydroxymethyl)-4-(4-(3,4,5-trifluorophenyl)-1H-1,2,3-triazol-1-yl)tetrahydro-2H-pyran-3,5-diol [Example 2.43.102SR.]
pIC50 (human Gal-3 (hGal-3); [1]): 5.41 | pIC50 (human Gal-1 (hGal-1)): 4.26

Cc1ccccc1C(S[C@@H]1O[C@H](CO)[C@H](O)[C@H](n2cc(-c3cc(F)c(F)c(F)c3)nn2)[C@H]1O)C1(O)CC(C)C1 (stereo partly drawn) [Example 2.36.102., (2S,3R,4S,5R,6R)-2-(((1-Hydroxy-3-methylcyclobutyl)(o-tolyl)methyl)thio)-6-(hydroxymethyl)-4-(4-(3,4,5-trifluorophenyl)-1H-1,2,3-triazol-1-yl)tetrahydro-2H-pyran-3,5-diol]
pIC50 (human Gal-3 (hGal-3); [1]): 6.34 | pIC50 (human Gal-1 (hGal-1)): 4.88

OC[C@H]1O[C@@H](SC(c2ccccc2)C2CC2)[C@H](O)[C@@H](n2cc(-c3cc(F)c(F)c(F)c3)nn2)[C@H]1O (stereo partly drawn) [Example 2.54.100., (2S,3R,4S,5R,6R)-2-((Cyclopropyl(phenyl)methyl)thio)-6-(hydroxymethyl)-4-(4-(3,4,5-trifluorophenyl)-1H-1,2,3-triazol-1-yl)tetrahydro-2H-pyran-3,5-diol, reference compound]
pIC50 (human Gal-3 (hGal-3); [2]): 5.49 | pIC50 (human Gal-1 (hGal-1)): 4.21

CN1CCC(O)([C@H](S[C@@H]2O[C@H](CO)[C@H](O)[C@H](n3cc(-c4cc(F)c(F)c(F)c4)nn3)[C@H]2O)c2ccccc2C(F)(F)F)CC1 [Example 2.40.112R., (2S,3R,4S,5R,6R)-2-(((R)-(4-Hydroxy-1-methylpiperidin-4-yl)(2-(trifluoromethyl)phenyl)methyl)thio)-6-(hydroxymethyl)-4-(4-(3,4,5-trifluorophenyl)-1H-1,2,3-triazol-1-yl)tetrahydro-2H-pyran-3,5-diol]
pIC50 (human Gal-3 (hGal-3); [1]): 7.22 | pIC50 (human Gal-1 (hGal-1)): 6.82

CC(C)Cc1ccccc1[C@@H](S[C@@H]1O[C@H](CO)[C@H](O)[C@H](n2cc(-c3cc(F)c(F)c(F)c3)nn2)[C@H]1O)C(C)(C)O [Example 2.31.107R., (2S,3R,4S,5R,6R)-2-(((R)-2-hydroxy-1-(2-isobutylphenyl)-2-methylpropyl)thio)-6-(hydroxymethyl)-4-(4-(3,4,5-trifluorophenyl)-1H-1,2,3-triazol-1-yl)tetrahydro-2H-pyran-3,5-diol]
pIC50 (human Gal-3 (hGal-3); [2]): 6.70 | pIC50 (human Gal-1 (hGal-1)): 6.52

CC(C)(O)[C@H](S[C@@H]1O[C@H](CO)[C@H](O)[C@H](n2cc(-c3cc(F)c(F)c(F)c3)nn2)[C@H]1O)c1ccccc1CCO [Example 2.31.108R., (2S,3R,4S,5R,6R)-2-(((R)-2-Hydroxy-1-(2-(2-hydroxyethyl)phenyl)-2-methylpropyl)thio)-6-(hydroxymethyl)-4-(4-(3,4,5-trifluorophenyl)-1H-1,2,3-triazol-1-yl)tetrahydro-2H-pyran-3,5-diol]
pIC50 (human Gal-3 (hGal-3); [2]): 6.57 | pIC50 (human Gal-1 (hGal-1)): 6.41

Cc1ccccc1[C@H](S[C@@H]1O[C@H](CO)[C@H](O)[C@H](n2cc(-c3cc(F)c(F)c(F)c3)nn2)[C@H]1O)C1(O)CC(C)C1 (stereo partly drawn) [Example 2.36.102S., (2S,3R,4S,5R,6R)-2-(((1S)-(1-Hydroxy-3-methylcyclobutyl)(o-tolyl)methyl)thio)-6-(hydroxymethyl)-4-(4-(3,4,5-trifluorophenyl)-1H-1,2,3-triazol-1-yl)tetrahydro-2H-pyran-3,5-diol]
pIC50 (human Gal-3 (hGal-3); [1]): 5.14 | pIC50 (human Gal-1 (hGal-1)): 4.27

Cc1cccnc1[C@@H](S[C@@H]1O[C@H](CO)[C@H](O)[C@H](n2cc(-c3cc(F)c(F)c(F)c3)nn2)[C@H]1O)C1(O)CCOCC1 [Example 2.41.126R., (2R,3R,4S,5R,6S)-2-(Hydroxymethyl)-6-(((R)-(4-hydroxytetrahydro-2H-pyran-4-yl)(3-methylpyridin-2-yl)methyl)thio)-4-(4-(3,4,5-trifluorophenyl)-1H-1,2,3-triazol-1-yl)tetrahydro-2H-pyran-3,5-diol]
pIC50 (human Gal-3 (hGal-3); [2]): 7.52 | pIC50 (human Gal-1 (hGal-1)): 6.15
